{
  "source": "paper PMC5100903",
  "about": "“Tissue Kallikrein Inhibitors Based on the Sunflower Trypsin Inhibitor Scaffold – A Potential Therapeutic Intervention for Skin Diseases” (PLoS ONE, 2016)",
  "key": {"[1]": {"molecular_target": "T1, KLK7 (Homo sapiens, UniProt P49862)", "T1 construct": "purchased R&D", "T1 sequence (P49862 30-253)": "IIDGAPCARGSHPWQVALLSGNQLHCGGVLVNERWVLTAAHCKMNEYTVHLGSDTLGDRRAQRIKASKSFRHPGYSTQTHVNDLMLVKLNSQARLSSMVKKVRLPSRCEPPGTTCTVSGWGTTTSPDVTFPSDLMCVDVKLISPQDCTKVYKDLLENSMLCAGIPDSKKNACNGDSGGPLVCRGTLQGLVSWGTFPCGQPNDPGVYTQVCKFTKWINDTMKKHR", "assay": "biochemical", "protocol": "(§1) All assays were performed on 96-well microplates and the change in relative fluorescence unit (RFU) was measured by fluorescence spectrometer (BMG FLUOstar OPTIMA). The excitation/emission wavelength was 360/460 nm for the substrate Boc-VPR-AMC (Bachem AG, Hauptstrasse, Switzerland) and MeOSuc-AAPV-AMC (Bachem AG, Hauptstrasse, Switzerland) and 485/520 nm for BODIPY_FL casein (Invitrogen, Carlsbad, US). Stock solution of Boc-VPR-AMC was prepared by dissolving the solid in dimethyl sulfoxide to 100 mM and 10 mM for MeOSuc-AAPV. For BODIPY_FL casein, it was reconstituted to 1 mg/mL in 1xPBS. […] The % of inhibition was calculated by the following equation: % of Inhibition=(1−(Sample RFU − Min RFU)/(Max RFU − Min RFU)) X100\n(§2) Each inhibition curves were done in triplicates with a minimum of five concentration points fitted. Fitting of each curve was done using SigmaPlot with the Four Parameter Logistic Function and the IC50 calculated. […] All tested compounds were reconstituted to stock solution in water.\nRecombinant KLK7, KLK8 and KLK14 (>95% purity by SDS-PAGE, endotoxin <0.1 ng/μg, R&D, Minneapolis, U.S.) stocks were diluted with 1xPBS to a concentration of 120 nM. KLK7 and KLK14 were activated by addition of 1 mM f/c CaCl2 (Sigma, Dorset, U.K.), 0.05% v/v Brij35 (Sigma, Dorset, U.K.), 20 nM f/c thermolysin (Sigma, Dorset, U.K.) and incubated at 37°C for 1 hour. The reaction was stopped by addition of ethylenediaminetetraacetic acid (EDTA, 50 mM f/c). KLK8 was activated by addition of 11 nM f/c lysyl endopeptidase (Santa Cruz Biotechnology, Dallas, U.S.) and incubation at 37°C for 0.5 hour. […] The RFU value reached by the thermolysin control was used as the minimum RFU for calculating the % of inhibition for KLK7.\nThe diluent for all the tested compounds, protein and substrate (except KLK7, which was done with 10 mM Tris pH 7.8) was 1xPBS pH 8.0–8.9. The serially diluted ligands were mixed with diluted bovine trypsin (Sigma, Dorset, U.K.) or activated KLK14, or KLK5, or activated KLK8 or matriptase (catalytic domain only, >90% purity by SDS-PAGE, endotoxin <0.1 ng/μg, R&D, Minneapolis, U.S.) or activated KLK7 or human neutrophil elastase (purified from human plasma, >95% purity by SDS-PAGE, Abcam, Cambridge, U.K.) or porcine pancreatic elastase 1 (Sigma, Dorset, U.K.) or human plasma kallikrein or human plasma plasmin (purified from human plasma, ≥95% purity by SDS-PAGE, BioVision, Milpitas, U.S.). 20μL of the ligand-protein mixture was pipetted to a well of a 96-well microplate in triplicates. The reaction was started by addition of 90–100 μL of the diluted substrate solution (contained 0.05% v/v Brij35) and the plate incubated at 25°C but 37°C for KLK7. RFU reading for each well was taken 6 minutes (trypsin) or 15 minutes (KLK14, KLK5, KLK8, matriptase, human neutrophil elastase, porcine pancreatic elastase 1, plasma kallikrein and plasmin) or 20 hours (KLK7) after substrate addition."}, "[2]": {"molecular_target": "T2, KLK5 (Homo sapiens, UniProt Q9Y337)", "T2 construct": "purchased Novoprotein", "T2 sequence (Q9Y337 23-293)": "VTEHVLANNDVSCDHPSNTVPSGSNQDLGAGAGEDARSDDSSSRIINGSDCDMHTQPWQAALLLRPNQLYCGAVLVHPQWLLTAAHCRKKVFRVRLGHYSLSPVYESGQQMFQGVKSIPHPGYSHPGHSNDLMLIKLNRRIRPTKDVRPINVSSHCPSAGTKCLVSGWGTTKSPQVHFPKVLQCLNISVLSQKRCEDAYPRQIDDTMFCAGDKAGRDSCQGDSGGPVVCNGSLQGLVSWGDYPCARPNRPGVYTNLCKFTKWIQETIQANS", "assay": "biochemical", "protocol": "as §1, §2\nThe diluent for all the tested compounds, protein and substrate was 1xPBS. Serially diluted ligands were mixed with diluted recombinant KLK5 (10 nM f/c). The ligand-protein mixtures were incubated on ice for one hour and 19.5 μL was pipetted into a well of a 96-well microplate in triplicates. To start the reaction, 100 μL of the diluted (41.6 μM f/c) Boc-VPR-AMC substrate solution (contained 0.05% v/v Brij35) was added. The plate was incubated at 37°C and the RFU reading was taken 15 minutes after.\nThere are two previously reported Km values for KLK5 and its substrate Boc-VPR-AMC which allowed the IC50 to Ki conversion. Ki values were calculated according to the Cheng-Prusoff equation Ki= IC50/1+[S]/Km for single site competitive binding."}, "[3]": {"molecular_target": "T2, KLK5", "assay": "biochemical", "assay_type": "binding", "protocol": "ITC experiments were performed on a MicroCal iTC200 calorimeter (GE Healthcare, Uppsala, Sweden) at 298.15 K with a stirring speed of 750 revolutions per minute. Concentrated (450 μM) ligand solutions were injected into protein (KLK5) solution (20 μM, 280 μL sample volume) in the sample cell. Injection volumes were 2 μL for I10H and Analogue 1 and 1 μL for Analogue 2 and 6 with a spacing of 120 seconds between each injection. Concentrations of ligands were determined by dried weight and they were reconstituted to 10 mM stock in H2O. Concentration of KLK5 was determined by UV280 calculated with an extinction coefficient of 38680 and molecular weight of 32KDa (including weight of glycosylation). The protein solution were buffer exchanged using spin column to 1xPBS (137 mM NaCl, 2.7 mM KCl, 4.3 mM Na2HPO4, 1.47 mM KH2PO4 pH 8.0) or 20 mM MES buffer (with 150 mM NaCl, pH 5.5). Ligand stocks were diluted in those buffers (4.5 μL + 95.5 μL buffer), and then equal v/v % of H2O was added to the protein solution after buffer exchange to ensure matching buffer contents. Heat of dilution was undetectable in control experiments. Data were analyzed using OriginLab version 7.0."}, "[4]": {"molecular_target": "T2, KLK5", "assay": "KLK5 inhibition, fluorogenic Boc-VPR-AMC assay (S1 Table conditions)", "assay_type": "biochemical", "conditions": "read-out: BOC-VPR-AMC IC50 (N = 3); KLK5 10 nM, Boc-VPR-AMC 41.6 μM, 1xPBS pH 8.0, 15 min on ice preincubation, read at 15 min, 25°C", "protocol": "as §1, with “The excitation/emission wavelength was 360/460 nm for the substrate Boc-VPR-AMC (Bachem AG, Hauptstrasse, Switzerland) and MeOSuc-AAPV-AMC (Bachem AG, Hauptstrasse, Switzerland) and 485/520 nm for BODIPY_FL casein (Invitrogen, Carlsbad, US).” left out\nas §2\nThe diluent for all the tested compounds, protein and substrate was 1xPBS pH 8.0. Zinc sulfate and p-aminobenzamidine were purchased from Sigma (Dorset, U.K.). […] The ligand-protein mixtures were incubated on ice for 15 minutes and 20 μL was transferred to a well of a 96-well microplate (ThermoScientific, Waltham, U.S.) in triplicate. […] Change in RFU was measured 15 minutes after substrate addition at 25°C."}, "[5]": {"conditions": "amide bond, 42-membered ring, MESNa (NCL via N-S acyl transfer), then NH4HCO3 oxidation, 0.1 M Na phosphate pH 5.8, 55.0 °C, 2 steps"}},
  "note": "Like-named read-outs stand apart in the source and are kept apart here. Positions of bridges follow the written chain, without caps; N, C: chain ends. Residues, ends and D or L forms follow the SMILES beside them.",
  "data": [
    {"molecule": "CC[C@H](C)[C@@H]1NC(=O)[C@H](CO)NC(=O)[C@H](CCCNC(=N)N)NC(=O)[C@H]([C@@H](C)O)NC(=O)[C@@H]2CSSC[C@H](NC(=O)[C@H](Cc3c[nH]cn3)NC(=O)[C@@H]3CCCN3C(=O)[C@@H]3CCCN3C1=O)C(=O)N[C@@H](Cc1ccccc1)C(=O)N1CCC[C@H]1C(=O)N[C@@H](CC(=O)O)C(=O)NCC(=O)N[C@@H](CCCNC(=N)N)C(=O)N2", "note": "[Analogue 1] (cyclo(CFPDGRCTRSIPPH); disulfide 1-7)", "values": [
      {"measurement": "IC50", "setting": "[1]", "result": "2290 ± 68", "unit": "nM"},
      {"measurement": "IC50", "setting": "[2]", "result": "65 ± 10", "unit": "nM"},
      {"measurement": "Ki", "setting": "[2]", "result": 60, "unit": "nM"},
      {"measurement": "Kd", "setting": "[3]", "result": 115, "unit": "nM"},
      {"measurement": "Stoichiometry (N)", "setting": "[3]; ITC, 1xPBS pH 8.0, 25°C", "result": "1.03±0.01"},
      {"measurement": "ΔH", "setting": "[3]; ITC, 1xPBS pH 8.0, 25°C", "result": "1.216 ± 0.021", "unit": "kcal/mol"},
      {"measurement": "ΔS", "setting": "[3]; ITC, 1xPBS pH 8.0, 25°C", "result": 35.8, "unit": "cal mol^-1 kelvin^-1"},
      {"measurement": "ΔG", "setting": "[3]; ITC, 25°C", "result": -9.457, "unit": "kcal/mol"},
      {"measurement": "Ka", "setting": "[3]; ITC, 25°C (Table S2, unit not given)", "result": "8.7E6±2.7E6"}
    ]},
    {"molecule": "O=S(=O)([O-])[O-].[Zn+2]", "note": "[Zinc Sulfate]", "values": [
      {"measurement": "IC50", "setting": "[4]", "result": 2940, "unit": "nM"}
    ]},
    {"molecule": "N=C(N)c1ccc(N)cc1", "note": "[p-Aminobenzamidine]", "values": [
      {"measurement": "IC50", "setting": "[4]", "result": 60400, "unit": "nM"}
    ]},
    {"molecule": "GRCTKSIPPHCFPD", "values": [
      {"measurement": "ring closure, yield after HPLC", "setting": "[5]; 0.6 mM", "result": 19, "unit": "%"}
    ]},
    {"molecule": "GRCTKSIPPHCWPD", "values": [
      {"measurement": "ring closure, yield after HPLC", "setting": "[5]; 0.59 mM", "result": 25, "unit": "%"}
    ]},
    {"molecule": "GRCTKSIPPHCYPD", "values": [
      {"measurement": "ring closure, yield after HPLC", "setting": "[5]; 0.6 mM", "result": 19, "unit": "%"}
    ]},
    {"molecule": "GRCTKSKPPHCFPD", "values": [
      {"measurement": "ring closure, yield after HPLC", "setting": "[5]; 0.6 mM", "result": 16, "unit": "%"}
    ]},
    {"molecule": "GRCTRSIPPHCFPD", "values": [
      {"measurement": "ring closure, yield after HPLC", "setting": "[5]; 0.59 mM", "result": 24, "unit": "%"}
    ]},
    {"molecule": "GRCTRSIPPHCWPD", "values": [
      {"measurement": "ring closure, yield after HPLC", "setting": "[5]; 0.58 mM", "result": 24, "unit": "%"}
    ]},
    {"molecule": "NRCTKSIPPHCFPD", "values": [
      {"measurement": "ring closure, yield after HPLC", "setting": "[5]; 0.58 mM", "result": 25, "unit": "%"}
    ]}
  ]
}
